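Test compounds were applied to cells in 96-well plates for 48 hours at 5 doses. The concentration for 50% growth inhibition is given as GI50.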 Active and inactive are the calls of the source. No stated cut-off is given here; in the data, active = GI50 up to about 1.1 µM and inactive = higher.
Assays:
Assay in all cases: growth of human tumour cells (NCI), 48 h
[1] = tested on: SNB-75
[2] = tested on: HL-60
[3] = tested on: SNB-19
[4] = tested on: CAKI-1
[5] = tested on: 786-0
[6] = tested on: HT-29
[7] = tested on: MCF7
[8] = tested on: CCRF-CEM
[9] = tested on: MDA-MB-231
[10] = tested on: HOP-92
[11] = tested on: NCI-H226
[12] = tested on: K562
[13] = tested on: HOP-62
[14] = tested on: HCT-15
[15] = tested on: EKVX
[16] = tested on: LOX IMVI
[17] = tested on: UACC-257
[18] = tested on: OVCAR-5
[19] = tested on: COLO 205
[20] = tested on: UO-31
[21] = tested on: OVCAR-8
[22] = tested on: OVCAR-4
[23] = tested on: M14
[24] = tested on: MOLT-4
[25] = tested on: SK-OV-3
[26] = tested on: U-251
[27] = tested on: KM12
[28] = tested on: SF-295
[29] = tested on: RXF 393
[30] = tested on: UACC-62
[31] = tested on: SF-268
[32] = tested on: SW-620
[33] = tested on: OVCAR-3
[34] = tested on: PC-3
[35] = tested on: MDA-MB-435
[36] = tested on: SN12C
[37] = tested on: MDA-N
[38] = tested on: A549
[39] = tested on: SF-539
[40] = tested on: BT-549
[41] = tested on: NCI-H460
[42] = tested on: SK-MEL-28
[43] = tested on: SK-MEL-5
[44] = tested on: RPMI-8226
[45] = tested on: Malme-3M
[46] = tested on: DU-145
[47] = tested on: T47D
[48] = tested on: NCI-H522
[49] = tested on: ACHN
[50] = tested on: Hs-578T
[51] = tested on: NCI-H23
[52] = tested on: A498
[53] = tested on: SR
[54] = tested on: TK-10
[55] = tested on: IGROV-1
[56] = tested on: HCT-116
[57] = tested on: SK-MEL-2
[58] = tested on: NCI/ADR-RES
[59] = tested on: HCC 2998

## COC(=O)[C@H](Cc1ccccc1)NC(=O)c1ccc(CNC(=O)/C=C/c2ccc(OCc3ccccc3)cc2)cc1
[1]
  GI50: 13.8 µM (inactive)
[2]
  GI50: < 0.01 µM (active)
[3]
  GI50: 15.7 µM (inactive)
[4]
  GI50: 12.1 µM (inactive)
[5]
  GI50: 5.11 µM (inactive)
[6]
  GI50: 13.5 µM (inactive)
[7]
  GI50: 29.4 µM (inactive)
[8]
  GI50: 17.4 µM (inactive)
[9]
  GI50: 16.5 µM (inactive)
[10]
  GI50: 2.45 µM (inactive)
[11]
  GI50: 21.3 µM (inactive)
[12]
  GI50: 12 µM (inactive)
[13]
  GI50: 12.6 µM (inactive)
[14]
  GI50: 40.1 µM
[15]
  GI50: 25.7 µM (inactive)
[16]
  GI50: 17.1 µM (inactive)
[17]
  GI50: 2.49 µM (inactive)
[18]
  GI50: 38.2 µM (inactive)
[19]
  GI50: > 73.3 µM (inactive)
[20]
  GI50: 14 µM (inactive)
[21]
  GI50: 13.3 µM (inactive)
[22]
  GI50: 6.55 µM (inactive)
[23]
  GI50: 2.44 µM (inactive)
[24]
  GI50: 6.17 µM (inactive)
[25]
  GI50: 24.4 µM (inactive)
[26]
  GI50: 18.1 µM (inactive)
[27]
  GI50: 19.1 µM (inactive)
[28]
  GI50: 18.4 µM (inactive)
[29]
  GI50: 6.34 µM (inactive)
[30]
  GI50: 4.44 µM (inactive)
[31]
  GI50: 10.8 µM (inactive)
[32]
  GI50: > 47.4 µM (inactive)
[33]
  GI50: 10.7 µM (inactive)
[34]
  GI50: 14.7 µM (inactive)
[35]
  GI50: 2.62 µM (inactive)
[36]
  GI50: 13.9 µM (inactive)
[37]
  GI50: 2.19 µM (inactive)
[38]
  GI50: 27 µM (inactive)
[39]
  GI50: 16.4 µM (inactive)
[40]
  GI50: 21.5 µM (inactive)
[41]
  GI50: 19.5 µM (inactive)
[42]
  GI50: 4.49 µM (inactive)
[43]
  GI50: 7.87 µM (inactive)
[44]
  GI50: 39 µM (inactive)
[45]
  GI50: 3.5 µM (inactive)
[46]
  GI50: 12.4 µM (inactive)
[47]
  GI50: 18.8 µM (inactive)
[48]
  GI50: 65.9 µM (inactive)
[49]
  GI50: 14.9 µM (inactive)
[50]
  GI50: 5.66 µM (inactive)
[51]
  GI50: 14.5 µM (inactive)
[52]
  GI50: 2.59 µM (inactive)
[53]
  GI50: 12.1 µM (inactive)
[54]
  GI50: 13.5 µM (inactive)
[55]
  GI50: 2.7 µM (inactive)
[56]
  GI50: 25.2 µM (inactive)
[57]
  GI50: 2.55 µM (inactive)
[58]
  GI50: 30.4 µM (inactive)
[59]
  GI50: 24.3 µM (inactive)

## COc1ccc(C(=O)/C=C/c2cc(O)c(O)cc2F)c(OC)c1
[1]
  GI50: 4.67 µM (inactive)
[2]
  GI50: 1.15 µM (inactive)
[3]
  GI50: 9.79 µM (inactive)
[4]
  GI50: 9.04 µM (inactive)
[5]
  GI50: 5.45 µM (inactive)
[6]
  GI50: 7.48 µM (inactive)
[7]
  GI50: 0.395 µM (active)
[8]
  GI50: 0.783 µM (active)
[9]
  GI50: 13.6 µM (inactive)
[10]
  GI50: 50.1 µM (inactive)
[11]
  GI50: 13.2 µM (inactive)
[12]
  GI50: 1.16 µM (inactive)
[13]
  GI50: 6.58 µM (inactive)
[14]
  GI50: 0.448 µM
[15]
  GI50: 14.4 µM (inactive)
[16]
  GI50: 10.6 µM (inactive)
[17]
  GI50: 10.5 µM (inactive)
[18]
  GI50: 15.3 µM (inactive)
[19]
  GI50: 15.8 µM (inactive)
[20]
  GI50: 7.67 µM (inactive)
[21]
  GI50: 14.5 µM (inactive)
[22]
  GI50: 12.5 µM (inactive)
[23]
  GI50: 10.2 µM (inactive)
[24]
  GI50: 3.71 µM (inactive)
[25]
  GI50: 10.6 µM (inactive)
[26]
  GI50: 5.45 µM (inactive)
[27]
  GI50: 5.16 µM (inactive)
[28]
  GI50: 5.65 µM (inactive)
[29]
  GI50: 9.68 µM (inactive)
[30]
  GI50: 10.9 µM (inactive)
[31]
  GI50: 7.28 µM (inactive)
[32]
  GI50: 6.82 µM (inactive)
[33]
  GI50: 0.327 µM (active)
[34]
  GI50: 5.78 µM (inactive)
[35]
  GI50: 2.9 µM (inactive)
[36]
  GI50: 3.94 µM (inactive)
[37]
  GI50: 2.54 µM (inactive)
[38]
  GI50: 10.5 µM (inactive)
[39]
  GI50: 6.04 µM (inactive)
[40]
  GI50: 6.52 µM (inactive)
[41]
  GI50: 3.99 µM (inactive)
[42]
  GI50: 11.8 µM (inactive)
[43]
  GI50: 8.05 µM (inactive)
[44]
  GI50: 3.34 µM (inactive)
[45]
  GI50: 7.71 µM (inactive)
[46]
  GI50: 6.19 µM (inactive)
[47]
  GI50: 4.05 µM (inactive)
[48]
  GI50: 0.354 µM (active)
[49]
  GI50: 7.08 µM (inactive)
[50]
  GI50: 4.8 µM (inactive)
[51]
  GI50: 5.3 µM (inactive)
[52]
  GI50: 12.1 µM (inactive)
[53]
  GI50: 0.564 µM (active)
[54]
  GI50: 15.1 µM (inactive)
[55]
  GI50: 7.96 µM (inactive)
[56]
  GI50: 6.97 µM (inactive)
[57]
  GI50: 4.91 µM (inactive)
[58]
  GI50: 7.85 µM (inactive)
[59]
  GI50: 2.27 µM (inactive)

— ChEMBL document CHEMBL1201862, “PubChem BioAssay data set” (2004)
